In the NIST ThermoML archive (doi:10.1016/j.jct.2010.02.006):
± gives the expanded uncertainty stated by the source.

Assay: activity coefficient (dimensionless); of the first substance listed, at infinite dilution; xn = mol fraction of the nth substance listed
Settings: 101.3 kPa, Liquid, Chromatography, x1 = 0

| SMILES | activity coefficient (302.8 K) | activity coefficient (313.4 K) | activity coefficient (323.1 K) | activity coefficient (332.8 K) | activity coefficient (343.4 K) | activity coefficient (313.2 K) | activity coefficient (333.1 K) | activity coefficient (343.1 K) | activity coefficient (303.5 K) | activity coefficient (323.3 K) | activity coefficient (313.3 K) | also measured |
| --- | --- | --- | --- | --- | --- | --- | --- | --- | --- | --- | --- | --- |
| CCCCC [pentane] + CCn1cc[n+](C)c1.N#C[B-](C#N)(C#N)C#N | 10.3 ± 0.89 | 8.21 ± 0.71 | 7.05 ± 0.61 | 5.92 ± 0.51 | 4.88 ± 0.42 |  |  |  |  |  |  |  |
| Cc1cccc(C)c1 [1,3-dimethylbenzene] + CCn1cc[n+](C)c1.N#C[B-](C#N)(C#N)C#N |  |  |  |  |  | 2.99 ± 0.26 | 3.01 ± 0.26 | 2.99 ± 0.26 |  |  |  | activity coefficient (303.6 K): 2.92 ± 0.25; activity coefficient (323.2 K): 3.03 ± 0.26 |
| CCCCCCCCC [nonane] + CCn1cc[n+](C)c1.N#C[B-](C#N)(C#N)C#N | 85 ± 7.4 | 78.1 ± 6.8 | 70.8 ± 6.1 | 63.5 ± 5.5 | 55.3 ± 4.8 |  |  |  |  |  |  |  |
| CC1CCCCC1 [methylcyclohexane] + CCn1cc[n+](C)c1.N#C[B-](C#N)(C#N)C#N | 20.7 ± 1.8 | 18.9 ± 1.6 | 16.9 ± 1.5 | 15.2 ± 1.3 | 13.3 ± 1.1 |  |  |  |  |  |  |  |
| CCc1ccccc1 [ethylbenzene] + CCn1cc[n+](C)c1.N#C[B-](C#N)(C#N)C#N |  |  | 3.05 ± 0.26 |  |  | 3 ± 0.26 |  |  |  |  |  | activity coefficient (303.6 K): 3 ± 0.26; activity coefficient (333.2 K): 2.97 ± 0.26; activity coefficient (343.3 K): 2.92 ± 0.25 |
| C=CCCCC [hex-1-ene] + CCn1cc[n+](C)c1.N#C[B-](C#N)(C#N)C#N |  |  |  |  |  | 9.74 ± 0.84 | 7.35 ± 0.63 | 6.27 ± 0.54 | 11.3 ± 0.97 | 8.39 ± 0.72 |  |  |
| C1CCCCC1 [cyclohexane] + CCn1cc[n+](C)c1.N#C[B-](C#N)(C#N)C#N | 13.8 ± 1.2 | 12.4 ± 1.1 | 11.2 ± 0.97 | 9.85 ± 0.85 | 8.64 ± 0.75 |  |  |  |  |  |  |  |
| C=CCCCCCC [oct-1-ene] + CCn1cc[n+](C)c1.N#C[B-](C#N)(C#N)C#N |  |  |  |  |  | 26.8 ± 2.3 | 21.5 ± 1.9 | 19 ± 1.6 | 30.1 ± 2.6 | 24 ± 2.1 |  |  |
| C#CCCC [1-pentyne] + CCn1cc[n+](C)c1.N#C[B-](C#N)(C#N)C#N |  |  |  |  |  |  | 2.38 ± 0.21 | 2.29 ± 0.2 | 2.72 ± 0.23 | 2.5 ± 0.22 | 2.61 ± 0.23 |  |
| Cc1ccc(C)cc1 [1,4-dimethylbenzene] + CCn1cc[n+](C)c1.N#C[B-](C#N)(C#N)C#N |  |  |  |  |  | 2.85 ± 0.25 |  |  |  |  |  | activity coefficient (303.7 K): 2.78 ± 0.24; activity coefficient (323.2 K): 2.87 ± 0.25; activity coefficient (333.3 K): 2.85 ± 0.25; activity coefficient (343.2 K): 2.84 ± 0.24 |
| CCCCCC [hexane] + CCn1cc[n+](C)c1.N#C[B-](C#N)(C#N)C#N | 21 ± 1.8 | 17.4 ± 1.5 | 15.1 ± 1.3 | 12.5 ± 1.1 | 10.3 ± 0.89 |  |  |  |  |  |  |  |
| Cc1ccccc1 [toluene] + CCn1cc[n+](C)c1.N#C[B-](C#N)(C#N)C#N |  |  | 1.98 ± 0.17 |  |  | 1.92 ± 0.16 |  |  |  |  |  | activity coefficient (303.6 K): 1.9 ± 0.16; activity coefficient (333.2 K): 1.94 ± 0.17; activity coefficient (343.3 K): 1.92 ± 0.16 |
| CCCO [propan-1-ol] + CCn1cc[n+](C)c1.N#C[B-](C#N)(C#N)C#N |  |  |  |  |  |  | 1.6 ± 0.14 | 1.46 ± 0.12 | 2.12 ± 0.18 | 1.74 ± 0.15 | 1.92 ± 0.17 |  |
| C=CCCCCCCCC [1-decene] + CCn1cc[n+](C)c1.N#C[B-](C#N)(C#N)C#N |  |  |  |  |  | 56 ± 4.8 | 47.8 ± 4.1 | 43.4 ± 3.8 | 60.5 ± 5.2 | 51.5 ± 4.5 |  |  |
| C#CCCCCC [1-heptyne] + CCn1cc[n+](C)c1.N#C[B-](C#N)(C#N)C#N |  |  |  |  |  |  | 5.78 ± 0.5 | 5.59 ± 0.48 | 6.33 ± 0.55 | 5.97 ± 0.52 | 6.15 ± 0.53 |  |
| C#CCCCC [1-hexyne] + CCn1cc[n+](C)c1.N#C[B-](C#N)(C#N)C#N |  |  |  |  |  |  | 3.77 ± 0.33 | 3.58 ± 0.31 | 4.18 ± 0.36 | 3.92 ± 0.34 | 4.04 ± 0.35 |  |
| CCCCCCC [heptane] + CCn1cc[n+](C)c1.N#C[B-](C#N)(C#N)C#N | 37.6 ± 3.3 | 32.2 ± 2.8 | 28.1 ± 2.4 | 23.8 ± 2.1 | 19.9 ± 1.7 |  |  |  |  |  |  |  |
| CCO [ethanol] + CCn1cc[n+](C)c1.N#C[B-](C#N)(C#N)C#N |  |  |  |  |  |  | 1.27 ± 0.11 | 1.16 ± 0.1 | 1.64 ± 0.14 | 1.37 ± 0.12 | 1.5 ± 0.13 |  |
| CCCCCCCC [octane] + CCn1cc[n+](C)c1.N#C[B-](C#N)(C#N)C#N | 58.9 ± 5.1 | 52.5 ± 4.5 | 46.7 ± 4 | 40.7 ± 3.5 | 34.9 ± 3 |  |  |  |  |  |  |  |
| Cc1ccccc1C [1,2-dimethylbenzene] + CCn1cc[n+](C)c1.N#C[B-](C#N)(C#N)C#N |  |  |  |  |  |  |  | 2.54 ± 0.22 |  |  | 2.53 ± 0.22 | activity coefficient (303.6 K): 2.49 ± 0.21; activity coefficient (323.2 K): 2.58 ± 0.22; activity coefficient (333.2 K): 2.56 ± 0.22 |
| CO [methanol] + CCn1cc[n+](C)c1.N#C[B-](C#N)(C#N)C#N |  |  |  |  |  |  | 0.91 ± 0.08 | 0.85 ± 0.07 | 1.13 ± 0.09 | 0.97 ± 0.08 | 1.05 ± 0.09 |  |
| c1ccccc1 [benzene] + CCn1cc[n+](C)c1.N#C[B-](C#N)(C#N)C#N |  |  |  |  |  |  |  |  |  |  | 1.31 ± 0.11 | activity coefficient (303.6 K): 1.31 ± 0.11; activity coefficient (323.2 K): 1.34 ± 0.11; activity coefficient (333.3 K): 1.31 ± 0.11; activity coefficient (343.2 K): 1.3 ± 0.11 |
| C#CCCCCCC [1-octyne] + CCn1cc[n+](C)c1.N#C[B-](C#N)(C#N)C#N |  |  |  |  |  |  | 8.84 ± 0.76 |  | 9.64 ± 0.83 | 9.11 ± 0.79 | 9.42 ± 0.81 | activity coefficient (342.8 K): 8.58 ± 0.74 |
